Source: patent publication US8022052B2, “Inhibition of PPAR gamma expression by specific osteogenic oxysterols” (The Regents of the University of California, priority 2006, dated 2011)
Entries after “also recorded” stand apart in the source; their conditions may differ.

Assays:
[1] = system: M2-10B4 (M2) murine pluripotent bone MSC line; details: cited from earlier work
[2] = system: GATA; assay: GATA luciferase reporter in M2 cells; type: cell-based, mouse; details: 24 and 48 h, data not shown
Source text: (§1) M2 cells at 70% confluency in a 24-well plate were transiently transfected with: a plasmid containing three tandem repeats of the PPAR response element (PPRE) upstream of the basic thymidine kinase promoter (p3xPPRE-TK-Luciferase), a control pTK-Luciferase plasmid devoid of PPRE, a CMX-PPARγ expression plasmid (all kind gifts of Dr Peter Tontonoz), a CMX-RXRα expression plasmid (kind gift of Dr Sotirios Tetradis), and a pTK-Renilla-Luciferase plasmid (Promega, Madison, Wis., USA) using Fugene 6 Transfection Reagents from Roche (Indianapolis, Ind., USA). Luciferase activity assay was performed using Dual-Luciferase Reporter 1000 Assay System (Promega, Madison, Wis., USA). Luciferase reporter activity was normalized to Renilla Luciferase activity. […] For GATA reporter assays, M2 cells were transfected with a GATA Luciferase reporter vector or a control reporter vector (both from Panomics, Fremont, Calif., USA), and pTK-Renilla-Luciferase plasmid.

[3] = system: PPARγ; assay: PPARγ mRNA expression in M2 cells by RT-qPCR; type: cell-based, mouse; details: M2 cells, 10 μM Tro, oxysterol 5 μM; 24, 48, 96 h (20S), 48 h (Oxy13)
Experimental: (§2) M2 mouse MSCs were purchased from American Type Culture Collection (ATCC, Rockville, Md., USA). […] Cell culture was performed in 24- and 6-well plates for adipogenic differentiation and gene expression studies, respectively, and treatment with test agents was done in growth medium.
(§3) Total RNA was extracted with the RNA isolation kit from Stratagene (La Jolla, Calif., USA) according to the manufacturer's instructions. RNA was DNase-treated using DNA-free kit from Ambion (Austin, Tex., USA). Three micrograms of RNA was reverse-transcribed using reverse transcriptase from Stratagene to make single-stranded cDNA. The cDNA was mixed with Qi SYBR Green Supermix (Bio-Rad) for quantitative RT-PCR assay using a Bio-Rad I-cycler IQ quantitative thermocycler. All PCR samples were prepared in triplicate wells of a 96-well plate. After 40 cycles of PCR, melt curves were examined to ensure primer specificity. Fold changes in gene expression were calculated using the ΔΔCt method. […] Primers used are as follows: PPARγ2 (5′-[…]-3′ and 5′-[…]-3′), C/EBPα (5′-[…]-3′ and 5′-[…]-3′), ap2 (5′-[…]-3′ and 5′-[…]-3′), LPL (5′-[…]-3′ and 5′-[…]-[…]), GATA2 (5′-[…]-3′ and 5′-[…]-3′), GATA3 (5′-[…]-3′ and 5′-[…]-3′), GILZ (5′-[…]-3′ and 5′-[…]-3′), and pref-1 (5′-[…]-3′ and 5′-[…]-3′).
(§4) Adipocyte formation was examined by Oil red O staining. […] PPARγ expression was assessed by RT-qPCR after treating M2 cells with Tro in the presence or absence of 20S. […] M2 cells at confluence were treated with control vehicle, 10 μM Tro, or 5 μM 20S, alone or in combination for 24 hours (FIG. 2A), 48 hours (FIG. 2B), and 96 hours (FIG. 2C). PPARγ mRNA expression was measured by quantitative real-time PCR.
(§5) After 10 days, adipocyte formation was measured by Oil red O staining. The number of adipocytes was determined by counting Oil red O-positive cells in five separate fields per well, in three wells per experimental condition. […] After 48 h, PPARγ mRNA expression was measured by quantitative real-time PCR. […] Luciferase activity was measured after 24 h and normalized for transfection efficiency using the Renilla luciferase activity.
After 48 hours of treatment, RNA was extracted from cells and analyzed for PPARγ expression by Q-RT-PCR. Data from a representative experiment, normalized to GAPDH expression, are reported as the mean of triplicate determinations ±SD.

[4] = system: GATA2, GATA3, Gilz, and pref-1; assay: GATA2, GATA3, Gilz and pref-1 expression in M2 cells by RT-qPCR; type: cell-based, mouse; details: 24 and 48 h, data not shown
Source text: as §3

[5] = system: murine PPARγ2 promoter; assay: PPARγ2 promoter luciferase activity induced by C/EBPα overexpression in M2 cells; type: cell-based, mouse; details: p19-PPARγ2 with MSV-C/EBPα plasmid, 24 h
Experimental: For PPARγ promoter activity assays, M2 cells were transiently transfected with a murine PPARγ2 promoter construct luciferase plasmid (p19-PPARγ2; (kind gift of Dr Steven McKnight), along with MSV-C/EBPα overexpression plasmid (kind gift of Dr. Sophia Tsai) and pTK-Renilla-Luciferase plasmid. Luciferase activity was measured after 24 h and normalized for transfection efficiency using the Renilla Luciferase activity.
To determine if 20S and Shh inhibit PPARγ expression by acting directly on its promoter, we focused on C/EBPα regulated PPARγ promoter activity.
as §5

[6] = system: aP2; assay: aP2 mRNA expression in M2 cells by quantitative real-time PCR; type: cell-based, mouse; details: 10 μM Tro, 5 μM 20S, 24, 48, 96 hours
Experimental: . M2 cells at confluence were treated with control vehicle, 10 μM Tro, or 5 μM 20S, alone or in combination for 24 hours (FIG. 4A), 48 hours (FIG. 4B), and 96 hours (FIG. 4C). aP2 mRNA expression was measured by quantitative real-time PCR. Fold changes in gene expression relative to the control were calculated using the ΔΔCt method and reported as the mean of triplicate determination ±SD (p<0.0001 for Tro or Tro+20S vs. control or 20S and p<0.01 for Tro vs. Tro+20S at 24 hours (FIG. 4A); p<0.0001 for Tro or Tro+20S vs. control or 20S and for Tro vs. Tro+20S at 48 hours (FIG. 4B); p<0.0001 for Tro vs. control, 20S, or Tro+20S and p<0.001 for Tro+20S vs. control or 20S at 96 hours (FIG. 4C)).

[7] = system: PPARγ; assay: PPRE luciferase reporter assay (PPARγ transcriptional activity) in M2 cells; type: cell-based, mouse
Source text: as §1
M2 cells were transiently transfected with a reporter construct containing three tandem repeats of a PPRE (pTK-3×PPRE-Luciferase) or the control plasmid (pTK-Luciferase). Cells were treated with 10 μM Tro or control vehicle, and luciferase activity was measured after 24 and 48 h. […] Because PPARγ and retinoid X receptor (RXR) form obligatory heterodimers, we studied whether 20S would have an effect when both PPARγ and RXRα were overexpressed. […] Luciferase activity was measured after 24 hours and normalized for transfection efficiency using the Renilla luciferase activity. […] Luciferase activity was normalized for transfection efficiency using the Renilla luciferase activity. […] Luciferase activity was measured after 24 hours and normalized to the Renilla luciferase activity.

[8] = system: LXRs; assay: LXR activation in M2 cells; type: cell-based, mouse; details: data not shown
[9] = system: C/EBPα; assay: C/EBPα mRNA expression in M2 cells by quantitative real-time PCR; type: cell-based, mouse; details: 10 μM Tro, 5 μM 20S, 24, 48, 96 hours
Experimental: . M2 cells at confluence were treated with control vehicle, 10 μM Tro, or 5 μM 20S, alone or in combination for 24 (FIG. 3A), 48 (FIG. 3B), and 96 (FIG. 3C) hours. C/EBPα mRNA expression was measured by quantitative real-time PCR. Fold changes in gene expression relative to the control were calculated using the ΔΔCt method and reported as the mean of triplicate determination ±SD (p<0.0001 for Tro vs. control and p<0.001 for Tro+20S vs. control at 24 hours (FIG. 3A); p<0.0001 for Tro vs. control and p<0.001 for Tro+20S vs. control at 48 hours (FIG. 3B); p<0.0001 for Tro or Tro+20S vs. control at 96 hours (FIG. 3C).

[10] = system: M2-10B4 (M2) murine pluripotent bone MSC line; assay: Tro-induced adipocyte formation in M2 cells, Oil red O staining; type: cell-based, mouse; details: M2 cells, 10 μM Tro, oxysterol 5 μM, 10 days
Experimental: as §2
Oil red O staining for detection of adipocytes was performed as previously described. […] The number of adipocytes was quantitated by counting Oil red O-positive cells in five separate fields per well, in three wells per experimental condition. The results are reported as the mean of triplicate determination ±SD.
as §4, §5
Synthetic oxysterol compounds were studied for inhibition of adipogenesis and PPAR expression. […] After 10 days of treatment, cells were stained with Oil-red-O to detect adipocytes, and the number of positively stained cells was determined using light microscopy. Data from a representative experiment are reported as the mean of triplicate determination (average of five fields per well, 3 wells per experimental condition) ±SD.

## CC(C)CCC[C@](C)(O)[C@H]1CC[C@H]2[C@@H]3CC=C4C[C@@H](O)CC[C@]4(C)[C@H]3CC[C@@]21C [Oxy 20S, 20(S)-hydroxycholesterol]
[1]
  adipogenic differentiation of M2 cells (previously reported): inhibit
[2]
  GATA transcriptional activity: does not increase
[3]
  inhibition of Tro-induced PPARγ mRNA expression: completely inhibited; also recorded: almost completely blocked; also recorded: specifically inhibited; also recorded: inhibits
[4]
  GATA2/GATA3, Gilz, and pref-1 gene expression: does not increase
[5]
  inhibition of PPARγ2 promoter activity induced by C/EBPα overexpression: greatly inhibited; also recorded: inhibit; also recorded: significantly inhibited
[6]
  effect of 20S on Tro-induced aP2 mRNA expression: inhibited
[7]; M2 cells overexpressing PPARγ
  effect of 20S on Tro-induced PPRE reporter activity (PPARγ transcriptional activity): did not inhibit but rather enhanced; also recorded: not inhibited but rather enhanced; also recorded: does not inhibit
[7]; M2 cells overexpressing PPARγ and RXRα, 24 hours
  effect of 20S on PPARγ-RXRα induced PPRE reporter activity: did not inhibit; also recorded: enhanced
[7]; M2 cells without PPARγ overexpression, 24 hours
  effect of 20S on Tro-induced PPRE reporter activity: did not inhibit Tro-induced PPRE reporter activity, but instead caused a small but significant increase
[8]
  activation of LXRs: activation
[9]
  effect of 20S on Tro-induced C/EBPα mRNA expression: did not inhibit
[10]
  inhibition of Tro-induced adipocyte formation: completely inhibited; also recorded: significantly inhibited
